In publication PMC10276154, “Development of the nonreceptor tyrosine kinase FER-targeting PROTACs as a potential strategy for antagonizing ovarian cancer cell motility and invasiveness” (The Journal of Biological Chemistry, 2023):

Biological target: FER (Homo sapiens, UniProt P16591)
Assay: pY402-FER autophosphorylation immunoblot in HEK293FT cells transfected with pLV-FER, […] h
Type: cell-based

FER, sequence (P16591 whole entry): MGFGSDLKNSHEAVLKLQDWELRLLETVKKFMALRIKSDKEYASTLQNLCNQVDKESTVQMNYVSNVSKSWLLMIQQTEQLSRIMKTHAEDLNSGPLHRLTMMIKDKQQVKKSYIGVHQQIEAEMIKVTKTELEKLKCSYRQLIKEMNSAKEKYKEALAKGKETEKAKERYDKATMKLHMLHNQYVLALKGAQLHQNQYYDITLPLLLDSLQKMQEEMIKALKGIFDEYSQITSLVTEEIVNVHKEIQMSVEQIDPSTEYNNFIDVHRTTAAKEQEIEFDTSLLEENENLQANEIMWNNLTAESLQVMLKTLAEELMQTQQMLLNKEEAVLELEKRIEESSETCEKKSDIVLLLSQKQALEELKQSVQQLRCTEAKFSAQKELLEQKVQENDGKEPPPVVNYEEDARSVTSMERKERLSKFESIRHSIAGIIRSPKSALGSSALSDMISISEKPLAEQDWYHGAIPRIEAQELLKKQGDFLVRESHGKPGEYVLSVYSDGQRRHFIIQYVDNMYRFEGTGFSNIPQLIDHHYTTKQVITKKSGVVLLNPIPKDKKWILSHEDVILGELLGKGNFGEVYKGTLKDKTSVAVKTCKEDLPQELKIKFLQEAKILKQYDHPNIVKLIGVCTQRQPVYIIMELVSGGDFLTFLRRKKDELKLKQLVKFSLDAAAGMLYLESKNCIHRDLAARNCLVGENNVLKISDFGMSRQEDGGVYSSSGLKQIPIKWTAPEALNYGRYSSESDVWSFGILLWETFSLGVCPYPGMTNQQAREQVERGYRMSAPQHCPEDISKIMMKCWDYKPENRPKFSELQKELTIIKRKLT

COc1cc(N2CCC(N3CCN(C)CC3)CC2)ccc1Nc1ncc(Cl)c(Nc2ccccc2P(C)(C)=O)n1 [brigatinib]
IC50: 138 nM
